How the values were obtained:
Experiment in all cases: relative viability (nuclei count vs DMSO), 5 days (fraction); higher = more cells survive
FG-4592 + Tozasertib = compound: Cc1nc(C(=O)NCC(=O)O)c(O)c2ccc(Oc3ccccc3)cc12 [FG-4592] + Cc1cc(Nc2cc(N3CCN(C)CC3)nc(Sc3ccc(NC(=O)C4CC4)cc3)n2)n[nH]1 [Tozasertib] (partner 0.1 µM)
Method in brief: (§1)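 Relative viability is defined as nuclei in treated wells over nuclei in vehicle wells. Duplicate plates were run and medians reported. Lung cancer cell lines in 1536-well plates were dosed by pin tool one day after seeding, with one drug or with a fixed anchor-drug dose plus five library-drug doses (not always all listed) in √10 steps, and nuclei were counted after 5 days.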

IU1-47 + Lapatinib = compound: CC1=CC(=C(N1C2=CC=C(C=C2)Cl)C)C(=O)CN3CCCCC3 [IU1-47] + CS(=O)(=O)CCNCc1ccc(-c2ccc3ncnc(Nc4ccc(OCc5cccc(F)c5)c(Cl)c4)c3c2)o1 [Lapatinib] (partner 2 µM)
Method in brief: as §1

FG-4592 + Luminespib = compound: Cc1nc(C(=O)NCC(=O)O)c(O)c2ccc(Oc3ccccc3)cc12 [FG-4592] + CCNC(=O)c1noc(-c2cc(C(C)C)c(O)cc2O)c1-c1ccc(CN2CCOCC2)cc1 [Luminespib] (partner 0.01 µM)
Method in brief: as §1

IU1-47 + Palbociclib = compound: CC1=CC(=C(N1C2=CC=C(C=C2)Cl)C)C(=O)CN3CCCCC3 [IU1-47] + CC(=O)c1c(C)c2cnc(Nc3ccc(N4CCNCC4)cn3)nc2n(C2CCCC2)c1=O [Palbociclib] (partner 0.5 µM)
Method in brief: as §1

## UMC-11
FG-4592 + Tozasertib; first compound 0.08 µM
  relative viability: 0.217
FG-4592 + Tozasertib; first compound 0.253 µM
  relative viability: 0.184
FG-4592 + Tozasertib; first compound 0.8 µM
  relative viability: 0.199
FG-4592 + Tozasertib; first compound 2.53 µM
  relative viability: 0.203
FG-4592 + Tozasertib; first compound 8 µM
  relative viability: 0.198
IU1-47 + Lapatinib; first compound 0.08 µM
  relative viability: 0.887
IU1-47 + Lapatinib; first compound 0.253 µM
  relative viability: 0.877
IU1-47 + Lapatinib; first compound 0.8 µM
  relative viability: 1.03
IU1-47 + Lapatinib; first compound 2.53 µM
  relative viability: 1.24
IU1-47 + Lapatinib; first compound 8 µM
  relative viability: 0.876
FG-4592 + Luminespib; first compound 0.08 µM
  relative viability: 0.957
FG-4592 + Luminespib; first compound 0.253 µM
  relative viability: 0.944
FG-4592 + Luminespib; first compound 0.8 µM
  relative viability: 1.01
FG-4592 + Luminespib; first compound 2.53 µM
  relative viability: 0.995
FG-4592 + Luminespib; first compound 8 µM
  relative viability: 0.778
IU1-47 + Palbociclib; first compound 0.08 µM
  relative viability: 0.353
IU1-47 + Palbociclib; first compound 0.253 µM
  relative viability: 0.339
IU1-47 + Palbociclib; first compound 0.8 µM
  relative viability: 0.333
IU1-47 + Palbociclib; first compound 2.53 µM
  relative viability: 0.322
IU1-47 + Palbociclib; first compound 8 µM
  relative viability: 0.351

From the supplement of paper PMC10307832
